ChEMBL document CHEMBL1142791, “Design, synthesis, and evaluation of 2-phenoxy-indan-1-one derivatives as acetylcholinesterase inhibitors” (Bioorg Med Chem Lett, 2005)

Tests used:
Butyrylcholinesterase = Butyrylcholinesterase (Rattus norvegicus, UniProt Q9JKC1); test: In vitro inhibitory concentration against butyrylcholinesterase was determined using rat serum homogenate
Acetylcholinesterase = target: T1, Acetylcholinesterase (Rattus norvegicus, UniProt P37136)
T1 sequence (P37136 whole entry): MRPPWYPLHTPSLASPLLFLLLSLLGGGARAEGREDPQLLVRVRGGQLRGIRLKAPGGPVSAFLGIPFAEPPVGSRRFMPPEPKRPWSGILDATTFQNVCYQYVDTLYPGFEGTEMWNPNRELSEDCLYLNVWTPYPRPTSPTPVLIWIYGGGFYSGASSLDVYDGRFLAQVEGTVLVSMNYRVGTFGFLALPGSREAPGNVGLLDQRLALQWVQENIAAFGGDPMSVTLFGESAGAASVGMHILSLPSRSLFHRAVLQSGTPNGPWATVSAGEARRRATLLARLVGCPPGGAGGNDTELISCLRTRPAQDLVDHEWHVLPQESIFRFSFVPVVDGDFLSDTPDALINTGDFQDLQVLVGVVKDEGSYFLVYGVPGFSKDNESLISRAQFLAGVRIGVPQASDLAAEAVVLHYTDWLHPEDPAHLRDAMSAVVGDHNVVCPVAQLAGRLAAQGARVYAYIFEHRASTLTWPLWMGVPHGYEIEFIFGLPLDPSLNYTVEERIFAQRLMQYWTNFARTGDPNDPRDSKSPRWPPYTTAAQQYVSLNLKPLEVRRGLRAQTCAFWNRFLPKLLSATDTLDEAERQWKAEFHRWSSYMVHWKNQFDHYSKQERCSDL
Description: In vitro inhibitory concentration against rat cortex acetylcholinesterase

Chain of Butyrylcholinesterase (Q9JKC1 whole entry): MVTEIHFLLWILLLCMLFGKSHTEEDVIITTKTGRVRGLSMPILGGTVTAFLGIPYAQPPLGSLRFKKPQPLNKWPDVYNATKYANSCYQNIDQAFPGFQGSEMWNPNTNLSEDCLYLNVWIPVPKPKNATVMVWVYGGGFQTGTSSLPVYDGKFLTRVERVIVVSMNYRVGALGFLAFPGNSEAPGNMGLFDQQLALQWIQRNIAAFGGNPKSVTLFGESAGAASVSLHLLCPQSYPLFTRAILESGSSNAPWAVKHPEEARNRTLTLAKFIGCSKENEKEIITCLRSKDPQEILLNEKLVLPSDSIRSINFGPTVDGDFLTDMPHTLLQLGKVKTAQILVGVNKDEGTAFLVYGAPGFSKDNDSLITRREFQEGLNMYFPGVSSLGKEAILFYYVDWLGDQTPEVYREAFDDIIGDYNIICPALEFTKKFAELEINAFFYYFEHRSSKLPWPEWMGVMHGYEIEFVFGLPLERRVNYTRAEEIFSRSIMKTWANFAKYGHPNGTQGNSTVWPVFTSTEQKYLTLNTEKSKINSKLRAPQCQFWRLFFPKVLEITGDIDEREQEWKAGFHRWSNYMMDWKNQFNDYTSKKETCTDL

COc1cc2c(cc1OC)C(=O)C(Oc1ccc(C(C)N(C)C)cc1)C2 (stereo not drawn)
IC50 (Butyrylcholinesterase): 1370 µM

COc1cc2c(cc1OC)C(=O)C(Oc1ccc(CN3CCOCC3)cc1)C2 (stereo not drawn)
IC50 (Acetylcholinesterase): 1300 nM | IC50 (Butyrylcholinesterase): 384 µM

COc1cc2c(cc1OC)C(=O)C(Oc1ccc(CN3CCCCC3)cc1)C2 (stereo not drawn)
IC50 (Acetylcholinesterase): 150 nM | IC50 (Butyrylcholinesterase): 262 µM

COc1cc2c(cc1OC)C(=O)C(Oc1ccc(C(C)N3CCCCC3)cc1)C2 (stereo not drawn)
IC50 (Acetylcholinesterase): 130 nM | IC50 (Butyrylcholinesterase): 176 µM

CCN(CC)Cc1ccc(OC2Cc3cc(OC)c(OC)cc3C2=O)cc1 (stereo not drawn)
IC50 (Acetylcholinesterase): 100 nM | IC50 (Butyrylcholinesterase): 251 µM

COc1cc2c(cc1OC)C(=O)C(Oc1ccc(C(C)N3CCCC3)cc1)C2 (stereo not drawn)
IC50 (Acetylcholinesterase): 140 nM | IC50 (Butyrylcholinesterase): 130 µM

COc1cc2c(cc1OC)C(=O)C(Oc1ccc(CN3CCCC3)cc1)C2 (stereo not drawn)
IC50 (Acetylcholinesterase): 50 nM | IC50 (Butyrylcholinesterase): 84.3 µM

CCN(CC)C(C)c1cccc(OC2Cc3cc(OC)c(OC)cc3C2=O)c1 (stereo not drawn)
IC50 (Acetylcholinesterase): 1360 nM | IC50 (Butyrylcholinesterase): 199 µM

CCN(CC)Cc1cccc(OC2Cc3cc(OC)c(OC)cc3C2=O)c1 (stereo not drawn)
IC50 (Acetylcholinesterase): 2280 nM | IC50 (Butyrylcholinesterase): 190 µM

CCN(CC)C(C)c1ccc(OC2Cc3cc(OC)c(OC)cc3C2=O)cc1 (stereo not drawn)
IC50 (Acetylcholinesterase): 220 nM | IC50 (Butyrylcholinesterase): 234 µM

COc1cc2c(cc1OC)C(=O)C(Oc1cccc(C(C)N3CCN(C)CC3)c1)C2 (stereo not drawn)
IC50 (Acetylcholinesterase): 17600 nM | IC50 (Butyrylcholinesterase): 252 µM

COc1cc2c(cc1OC)C(=O)C(Oc1cccc(CN3CCCCC3)c1)C2 (stereo not drawn)
IC50 (Acetylcholinesterase): 3180 nM | IC50 (Butyrylcholinesterase): 55.5 µM

COc1cc2c(cc1OC)C(=O)C(Oc1cccc(CN(C)C)c1)C2 (stereo not drawn)
IC50 (Butyrylcholinesterase): 207 µM

COc1cc2c(cc1OC)C(=O)C(Oc1cccc(CN3CCOCC3)c1)C2 (stereo not drawn)
IC50 (Butyrylcholinesterase): 219 µM

COc1cc2c(cc1OC)C(=O)C(Oc1cccc(C(C)N3CCCC3)c1)C2 (stereo not drawn)
IC50 (Acetylcholinesterase): 1960 nM | IC50 (Butyrylcholinesterase): 212 µM

COc1cc2c(cc1OC)C(=O)C(Oc1cccc(C(C)N3CCOCC3)c1)C2 (stereo not drawn)
IC50 (Butyrylcholinesterase): 247 µM

COc1cc2c(cc1OC)C(=O)C(Oc1cccc(CN3CCN(C)CC3)c1)C2 (stereo not drawn)
IC50 (Acetylcholinesterase): 6410 nM | IC50 (Butyrylcholinesterase): 209 µM

COc1cc2c(cc1OC)C(=O)C(Oc1ccc(CN3CCN(C)CC3)cc1)C2 (stereo not drawn)
IC50 (Acetylcholinesterase): 1420 nM | IC50 (Butyrylcholinesterase): 347 µM

COc1cc2c(cc1OC)C(=O)C(Oc1ccc(C(C)N3CCOCC3)cc1)C2 (stereo not drawn)
IC50 (Acetylcholinesterase): 3140 nM | IC50 (Butyrylcholinesterase): 346 µM

COc1cc2c(cc1OC)C(=O)C(Oc1ccc(C(C)N3CCN(C)CC3)cc1)C2 (stereo not drawn)
IC50 (Acetylcholinesterase): 2980 nM | IC50 (Butyrylcholinesterase): 393 µM

COc1cc2c(cc1OC)C(=O)C(Oc1cccc(C(C)N3CCCCC3)c1)C2 (stereo not drawn)
IC50 (Acetylcholinesterase): 3580 nM | IC50 (Butyrylcholinesterase): 158 µM

COc1cc2c(cc1OC)C(=O)C(Oc1cccc(CN3CCCC3)c1)C2 (stereo not drawn)
IC50 (Butyrylcholinesterase): 39.5 µM

COc1cc2c(cc1OC)C(=O)C(Oc1ccc(CN(C)C)cc1)C2 (stereo not drawn)
IC50 (Acetylcholinesterase): 210 nM | IC50 (Butyrylcholinesterase): 1980 µM

COc1cc2c(cc1OC)C(=O)C(Oc1cccc(C(C)N(C)C)c1)C2 (stereo not drawn)
IC50 (Acetylcholinesterase): 820 nM | IC50 (Butyrylcholinesterase): 288 µM
